These results are taken from paper PMC5601180, “Uptake and metabolism of sulphated steroids by the blood–brain barrier in the adult male rat” (Journal of Neurochemistry, 2017).

The subject of this experiment is efflux transporters. The experiment is described as follows: Brain perfusion in situ with efflux transporter inhibitors co-perfused with 3H-steroid sulphate. The format is in vivo, rat. Particulars: GF120918 3 μM or MK571 50 μM co-perfused, alone or in combination; 0.5 min perfusion. On the procedure: Figure 3 Effect of the efflux inhibitors GF120918 (3 μM) and MK571 (50 μM), alone or in combination, on the brain uptake of either ^3H‐dehydroepiandrosterone sulphate (DHEAS) or ^3H‐pregnenolone sulphate (PregS) after 0.5 min perfusion. […] All values mean ± SEM, n = 3. The effect of 0.5 mM of the corresponding unlabelled steroid sulphate (SS) in addition to the inhibitors is also shown. […] The inhibitors GF120918 and MK571 were dissolved in dimethylsulphoxide to a maximum final concentration of 0.8% (v/v) in the perfusate.

In the case of `COc1cc2c(cc1OC)CN(CCc1ccc(NC(=O)c3cccc4c(=O)c5cccc(OC)c5[nH]c34)cc1)CC2.Cl` [GF120918, 9,10‐dihydro‐5‐methoxy‐9‐oxo‐N‐[4‐[2‐(1,2,3,4‐tetrahydro‐6,7‐dimethoxy‐2‐isoquinolinyl)ethyl]phenyl]‐4‐acridine‐carboxamide hydrochloride], the “effect on brain uptake of 3H-DHEAS” value was “significant decrease in uptake” and the “effect on brain uptake of 3H-PregS” value is given as “significant decrease in uptake”.
Consider `CN(C)C(=O)CCSC(SCCC(=O)O)c1cccc(/C=C/c2ccc3ccc(Cl)cc3n2)c1` (stereo not shown) [MK571, 3‐[[[3‐[(1E)‐2‐(7‐Chloro‐2‐quinolinyl)ethenyl]phenyl][[3‐(dimethylamino)‐3‐oxopropyl]thio]methyl]thio]propanoic acid], for which the “effect on brain uptake of 3H-DHEAS” value is reported as “significant decrease in uptake” and the “effect on brain uptake of 3H-PregS” value was “significant decrease in uptake”.
